Molecular target: T1, Transient receptor potential cation channel subfamily V member 3 (Homo sapiens, UniProt Q8NET8)
T1 sequence (Q8NET8 whole entry): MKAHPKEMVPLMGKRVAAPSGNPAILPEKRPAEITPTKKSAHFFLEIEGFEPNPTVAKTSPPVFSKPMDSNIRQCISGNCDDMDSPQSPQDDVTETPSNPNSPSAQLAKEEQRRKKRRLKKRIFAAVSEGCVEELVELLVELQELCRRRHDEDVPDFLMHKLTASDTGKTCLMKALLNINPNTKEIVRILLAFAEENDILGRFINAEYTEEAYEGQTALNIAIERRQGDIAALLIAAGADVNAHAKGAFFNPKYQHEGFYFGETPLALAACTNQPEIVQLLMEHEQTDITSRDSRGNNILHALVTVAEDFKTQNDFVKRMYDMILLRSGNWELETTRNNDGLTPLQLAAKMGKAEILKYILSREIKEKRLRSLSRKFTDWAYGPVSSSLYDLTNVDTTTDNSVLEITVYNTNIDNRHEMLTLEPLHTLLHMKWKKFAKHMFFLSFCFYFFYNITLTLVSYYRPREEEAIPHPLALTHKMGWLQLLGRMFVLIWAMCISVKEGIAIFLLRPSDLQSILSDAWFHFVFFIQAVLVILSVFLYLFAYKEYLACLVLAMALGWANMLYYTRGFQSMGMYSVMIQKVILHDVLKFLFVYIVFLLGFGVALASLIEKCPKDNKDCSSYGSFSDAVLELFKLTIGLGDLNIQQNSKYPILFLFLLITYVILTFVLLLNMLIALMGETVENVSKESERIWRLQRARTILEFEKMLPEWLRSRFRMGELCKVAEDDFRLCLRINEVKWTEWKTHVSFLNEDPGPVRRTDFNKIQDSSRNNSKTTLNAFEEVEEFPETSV
Experiment: Patch Clamp Experiments
Experimental: TRPV3 cells were induced 20-48 hours, removed from growth plates, and replated at low density (to attain good single-cell physical separation) on glass coverslips for measurement. In some cases, cells were grown in low density overnight on glass coverslips. Patch clamp recordings were made in the whole-cell mode with a holding potential of −40 mV. Every 5 seconds, a voltage ramp was applied from −120 to +100 mV, 400 ms in duration. Currents elicited were quantified at −80 mV and +80 mV. […] External solution was Ringer's solution described above.

Structure (SMILES) | IC50
O=[N+](O)c1cc(-c2ccccc2)ccc1N1CC[C@H](Oc2ccc3cc(Cl)ccc3n2)C1 [US12435061, Compound 1-70] | > 3.2 µM
CCc1ccccc1Oc1ccc(N2CC[C@H](Oc3ccc(C(F)(F)F)cn3)C2)c(CO)n1 [US12435061, Compound 1-212] | > 3.2 µM

From BindingDB's records for patent US12435061 (Kamari Pharma, 2025)
